The values that follow come from US20110028438A1, “MEDICAL USE OF 3-2,2,2-TRIMETHYLHYDRAZINIUM PROPIONATE SALTS” (JSC GRINDEKS, priority 2007, published 2011).

Marks after values point to notes of the source that are not given here.

Series [1] deals with adult male Wistar rats. Nature of the series: Myocardial infarction in vivo (coronary artery occlusion and 120 minute reperfusion). Also on record: species or system rat. The note with it: for Area of Necrosis, % of Area at Risk / Area of Risk/left ventricle area / Infarct size, % of control: rats, 100 mg/kg by mouth for 14 days; for Area of Necrosis, % of Area at Risk: after 120 minute reperfusion; for Area of Risk/left ventricle area: area at risk expressed as percentage of the left ventricle; for Infarct size, % of control: relative to saline control group; for Therapeutic effect in in vivo myocardial infarction model compared with Meldonium dihydrate: result in words. The method, then: Experiments were conducted on adult male Wistar rats with initial weight of 300-350 g. During the experiment, the animals were kept in Standard crates in groups of 8. The feed was a standardized diet R70 (LABFOR, Lactamin AB, Sweden). The room temperature was kept at 21-23° C., relative humidity at 65±10%, 12 hour light/darkness cycle.
Rats weighing approximately 300 g were randomly divided into 4 groups of 8 animals each. The first group received saline by mouth (control group), the second received 100 mg/kg Meldonium dihydrate by mouth, the third 100mg/kg Meldonium hydrogen fumarate and the fourth 100 mg/kg Meldonium dihydrogen phosphate received for 14 days.
Rats were anesthetized with sodium pentobarbital (60 mg/kg i.p.). They were intubated and artificially respirated with rodent respirator (Rodent Ventilator 7025, Ugo Basile, (tally) with 15 mL/kg room air at a respiration rate of 55 breaths/min. Thoracic was open on the left side of breastbone by cutting fourth and fifths, if necessary, ribs. The pericard was open and 5/0 polypropylene suture (Surgipro II, Syneture) was passed under the left anterior descending coronary artery and threaded through a small plastic tube to permit reversible occlusion of the coronart artery. Coronary flow was measured using an ultrasound flow detector (HSE) and PowerLab 8/30 system from ADlnstruments.
Occlusion was performed by constricting threads through a plastic tube.
At the end of the 120 minute reperfusion, After reperfusion hearts were excised and retrogradely perfused via aorta at a constant pressure of 50 mm Hg, with oxygenated Krebs-Henseleit buffer (content in mmol/L: NaCl 118, Ca Cl2 2.52, MgCl2 1.64, NaHCO3 24.88, KH2PO4 1.18, glucose 10.0, EDTA 0.05) pH 7.3-7.5 at 37° C. Then after 10 min the left anterior descending coronary artery was relegated and the risk zone was delineated with 4 mL of 0.1% methylene blue solution in Krebs-Henseleit buffer infused via the aorta root. Hearts were sectioned transversely from the apex to the base of 2 mm thickness and incubated in 1% triphenyl-tetrazolium chloride in phosphate buffer (pH 7.4, 37° C.) for 10 minutes to stain viable tissue red and necrotic tissue white. Afterward, the right ventricle was cut off and photos of the left-ventricle slices were made with a Minolta 7D photo camera. Computerized planemetric analysis of photographs was performed using Image-Pro Plus 4.5.1 software to determine the area at risk (AR) and area of necrosis (AN) expressed as percentage of the left ventricle (LV). Obtained values were then used to calculate the infarct size (IS) as percentage of risk area according to formula: […]

The conditions of series [2]: as disclosed in EP 1667960 A; cited from earlier work.

For `C[N+](C)(C)NCCC(=O)[O-]` [Meldonium dihydrate, 3-(2,2,2-Trimethylhydrazinium) propionate dihydrate, reference compound], in series [1], the “Area of Necrosis, % of Area at Risk” value is 64.0 ± 2.7 % of Area at Risk; the “Area of Risk/left ventricle area” value is on record as 58.0 ± 2.2; the “Infarct size, % of control” value is 99.0 ± 4.2 % of control.
For `C[N+](C)(C)NCCC(=O)O.O=P([O-])(O)O` [Meldonium dihydrogen phosphate, 3-(2,2,2-trimethylhydrazinium) propionate dihydrogen phosphate], in series [2], the “Stability comparatively with Meldonium dihydrate” value was “more stable substance comparatively with Meldonium dihydrate”. In series [1], the “Therapeutic effect in in vivo myocardial infarction model compared with Meldonium dihydrate” value was “statistically better therapeutically effect than Meldonium dihydrate”; the “Area of Necrosis, % of Area at Risk” value is given as 50.9 ± 2.6*^,# % of Area at Risk; the “Area of Risk/left ventricle area” value worked out at 57.0 ± 3.0; the “Infarct size, % of control” value is given as 79.0 ± 4.1*^,# % of control.
For the compound `C[N+](C)(C)NCCC(=O)O.O=C([O-])/C=C/C(=O)O` [Meldonium hydrogen fumarate, 3-(2,2,2-trimethylhydrazinium) propionate hydrogen fumarate], the “Stability comparatively with Meldonium dihydrate” value in series [2] is “more stable substance comparatively with Meldonium dihydrate”. Also, in series [1], the “Therapeutic effect in in vivo myocardial infarction model compared with Meldonium dihydrate” value is “more effective as Meldonium dihydrate”; the “Area of Necrosis, % of Area at Risk” value was 52.2 ± 4.3 % of Area at Risk; the “Area of Risk/left ventricle area” value is 62.0 ± 3.5; the “Infarct size, % of control” value was 81.0 ± 6.6 % of control.
